Patent publication US20240217989A1, “Heteroaryl Fluoroalkenes As DGK Inhibitors” (Incyte Corporation, priority 2022, published 2024)
pIC50: −log10 of the molar value.

Tests used:
DGKζ = DGKζ (Homo sapiens, UniProt Q13574); test: In vitro DGKζ inhibition assay (ADP-Glo); type: biochemical; details: His-tagged human recombinant enzyme; 0.4 nM DGKζ, 30 μM ATP, 20 μM DLG; 90 minute incubation; ADP-Glo luminescence
Experimental: (§1) The DGKα and DGKζ biochemical reactions were performed using His-tagged human recombinant enzymes (Signal Chem, DGKα, #D21-10BH; DGKζ, #D30-10H)) and DLG (Dilauroyl-sn-glycerol) lipid substrate (Signal Chem, #D430-59). ADP-Glo assay was performed using ADP-Glo™ kinase Assay kit (Promega, #V9104). The reactions were carried out in assay buffer containing 40 mM Tris, pH 7.5, 0.1% CHAPS, 0.1% Prionex, 40 mM NaCl, 5 mM MgCl2, 1 mM CaCl2, and 1 mM DTT. DGKα reactions contained 0.1 nM DGKα, 50 μM ATP, and 20 μM DLG. And DGKζ reactions contained 0.4 nM DGKζ, 30 μM ATP, and 20 μM DLG. For compound inhibition studies, 40 nL test compound in DMSO was added to wells of white polystyrene plates in 384-well (Greiner, #784075) or 1536-well format (Greiner, #782075). Compounds were added with top concentration of 2 mM with 11 point, 3-fold dilution series. Enzyme solution (contains 2× DGK enzyme concentration in 1× assay buffer) was added to the plate in 2 μL/well volume, followed by 2 μL/well of substrate solution (contains 2× concentration of ATP and DLG substrate in 1× assay buffer). Plates were then centrifuged for 1 min at 1200 RPM and sealed or lidded. For 4 μL reaction volume, test compounds were therefore diluted 100× to final top concentration of 20 μM. After 90 minute incubation, reactions were quenched by addition of 2 μL/well Promega ADP-Glo Reagent, followed by centrifugation and lidding. After 60 min incubation, 2 μL/well Promega Kinase Detection Reagent was added, plates centrifuged, and incubated for 30 min. Plates were then read using Luminescence method on BMG PHERAstar FSX plate reader. Percent inhibition was calculated and IC50s were determined using 4-parameter fit in Genedata Screener. Labcyte Echo acoustic dispenser was used for compound addition, and Formulatrix Tempest liquid handler was used for all reagent dispenses.

DGKα = target: T1, DGKα (Homo sapiens, UniProt P23743); test: In vitro DGKα inhibition assay (ADP-Glo); type: biochemical; details: His-tagged human recombinant enzyme; 0.1 nM DGKα, 50 μM ATP, 20 μM DLG; 90 minute incubation; ADP-Glo luminescence
T1 construct: His; purchased Signal Chem D21-10BH
T1 sequence (P23743 whole entry): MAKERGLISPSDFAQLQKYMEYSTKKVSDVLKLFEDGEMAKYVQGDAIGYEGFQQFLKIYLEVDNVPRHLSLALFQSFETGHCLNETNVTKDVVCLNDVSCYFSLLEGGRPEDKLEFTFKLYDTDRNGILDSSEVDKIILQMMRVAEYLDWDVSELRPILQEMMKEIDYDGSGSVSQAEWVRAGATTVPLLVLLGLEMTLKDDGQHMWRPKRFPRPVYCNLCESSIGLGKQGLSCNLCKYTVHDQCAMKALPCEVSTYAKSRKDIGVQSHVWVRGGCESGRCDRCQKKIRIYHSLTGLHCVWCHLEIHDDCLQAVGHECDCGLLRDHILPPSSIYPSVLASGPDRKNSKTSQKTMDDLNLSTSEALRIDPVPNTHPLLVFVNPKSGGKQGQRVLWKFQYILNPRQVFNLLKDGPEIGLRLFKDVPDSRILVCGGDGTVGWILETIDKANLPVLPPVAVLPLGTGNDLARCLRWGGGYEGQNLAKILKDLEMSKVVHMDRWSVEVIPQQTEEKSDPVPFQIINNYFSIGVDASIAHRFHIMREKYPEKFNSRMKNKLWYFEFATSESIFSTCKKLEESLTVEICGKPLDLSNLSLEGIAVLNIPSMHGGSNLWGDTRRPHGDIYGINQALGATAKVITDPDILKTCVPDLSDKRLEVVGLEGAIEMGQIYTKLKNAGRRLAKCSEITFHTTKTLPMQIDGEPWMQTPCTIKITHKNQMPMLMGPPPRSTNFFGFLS
Experimental: as §1

DGKζ, sequence (Q13574 whole entry): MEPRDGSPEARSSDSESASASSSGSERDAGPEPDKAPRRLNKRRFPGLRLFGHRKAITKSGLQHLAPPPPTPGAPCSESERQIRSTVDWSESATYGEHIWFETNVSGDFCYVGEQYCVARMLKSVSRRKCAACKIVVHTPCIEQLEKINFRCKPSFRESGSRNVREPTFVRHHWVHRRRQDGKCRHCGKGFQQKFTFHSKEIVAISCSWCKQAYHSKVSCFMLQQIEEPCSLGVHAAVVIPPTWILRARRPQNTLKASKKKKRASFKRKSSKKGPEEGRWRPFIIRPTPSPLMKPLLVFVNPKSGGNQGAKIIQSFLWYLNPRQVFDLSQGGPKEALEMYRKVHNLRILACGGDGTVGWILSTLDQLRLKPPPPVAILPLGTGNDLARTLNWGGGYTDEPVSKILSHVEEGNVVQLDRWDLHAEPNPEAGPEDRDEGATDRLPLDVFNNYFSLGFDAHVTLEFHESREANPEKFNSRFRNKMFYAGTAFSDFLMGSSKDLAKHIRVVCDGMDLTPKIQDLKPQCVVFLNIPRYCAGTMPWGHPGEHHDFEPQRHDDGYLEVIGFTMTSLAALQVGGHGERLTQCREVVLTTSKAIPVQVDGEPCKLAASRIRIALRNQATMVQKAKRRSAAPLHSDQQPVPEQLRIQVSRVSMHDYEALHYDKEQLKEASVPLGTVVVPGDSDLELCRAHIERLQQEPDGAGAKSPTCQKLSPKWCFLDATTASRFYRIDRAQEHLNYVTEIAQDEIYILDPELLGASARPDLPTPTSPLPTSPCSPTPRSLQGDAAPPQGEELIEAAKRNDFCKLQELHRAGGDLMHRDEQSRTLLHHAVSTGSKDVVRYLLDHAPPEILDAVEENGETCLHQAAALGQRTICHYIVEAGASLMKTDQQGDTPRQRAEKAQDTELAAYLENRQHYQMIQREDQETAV

Row | Structure (SMILES) | pIC50 (DGKζ) | pIC50 (DGKα)
1 | CCN1CCC2(CCCN(c3c(/C=C(\F)c4nccc(-c5cnsc5)n4)ccc(Oc4ccccc4F)c3C(F)(F)F)C2)CC1 [Example 46, (Z)-4-(2-(2-(2-(9-Ethyl-2,9-diazaspiro[5.5]undecan-2-yl)-4-(2-fluorophenoxy)-3-(trifluoromethyl)phenyl)-1-fluorovinyl)pyrimidin-4-yl)isothiazole] | ≥ 7.70 | ≥ 7.70
2 | F/C(=C\c1ccc(Oc2cccc(F)c2F)c(C(F)(F)F)c1N1CCCC2(CCN(CC3CC3)CC2)C1)c1cncc(-c2cnsc2)n1 [Example 47, (Z)-4-(6-(2-(2-(9-(Cyclopropylmethyl)-2,9-diazaspiro[5.5]undecan-2-yl)-4-(2,3-difluorophenoxy)-3-(trifluoromethyl)phenyl)-1-fluorovinyl)pyrazin-2-yl)isothiazole] | ≥ 7.70 | ≥ 7.70
3 | F/C(=C\c1ccc(OC2CCCCC2)c(C(F)(F)F)c1N1CCCC2(CCN(CC3CC3)CC2)C1)c1cncc(-c2ccnnc2)n1 [Example 48, (Z)-2-(3-(Cyclohexyloxy)-6-(2-fluoro-2-(6-(pyridazin-4-yl)pyrazin-2-yl)vinyl)-2-(trifluoromethyl)phenyl)-9-(cyclopropylmethyl)-2,9-diazaspiro[5.5]undecane] | ≥ 7.70 | ≥ 7.70
4 | F/C(=C\c1ccc(Oc2cccc(F)c2F)c(C(F)(F)F)c1N1CCCC2(CCN(CC3CC3)CC2)C1)c1cncc(-c2ccns2)n1 [Example 49, (Z)-5-(6-(2-(2-(9-(Cyclopropylmethyl)-2,9-diazaspiro[5.5]undecan-2-yl)-4-(2,3-difluorophenoxy)-3-(trifluoromethyl)phenyl)-1-fluorovinyl)pyrazin-2-yl)isothiazole] | ≥ 7.70 | ≥ 7.70
5 | F/C(=C\c1ccc(OC2CCCCC2)c(C(F)(F)F)c1N1CCCC2(CCN(CC3CC3)CC2)C1)c1nccc(-c2ccnnc2)n1 [Example 50, (Z)-2-(3-(Cyclohexyloxy)-6-(2-fluoro-2-(4-(pyridazin-4-yl)pyrimidin-2-yl)vinyl)-2-(trifluoromethyl)phenyl)-9-(cyclopropylmethyl)-2,9-diazaspiro[5.5]undecane] | ≥ 7.70 | ≥ 7.70

Now from value to compound:

Row | pIC50 (DGKζ) | pIC50 (DGKα) | Structure (SMILES)
6 | ≥ 7.70 | ≥ 7.70 | F/C(=C\c1ccc(Oc2ccccc2F)c(C(F)(F)F)c1N1CCOC2(CCN(CC3CC3)CC2)C1)c1nccc(-c2ccnnc2)n1 [Example 42, (Z)-9-(Cyclopropylmethyl)-4-(6-(2-fluoro-2-(4-(pyridazin-4-yl)pyrimidin-2-yl)vinyl)-3-(2-fluorophenoxy)-2-(trifluoromethyl)phenyl)-1-oxa-4,9-diazaspiro[5.5]undecane]
7 | ≥ 7.70 | ≥ 7.70 | NC[C@@H]1CCCN(c2c(/C=C(\F)c3nccc(-c4ccnnc4)n3)ccc(Oc3ccccc3)c2C(F)(F)F)C1 [Example 43, (S,Z)-(1-(6-(2-Fluoro-2-(4-(pyridazin-4-yl)pyrimidin-2-yl)vinyl)-3-phenoxy-2-(trifluoromethyl)phenyl)piperidin-3-yl)methanamine]
8 | ≥ 7.70 | ≥ 7.70 | CCN1CCC2(CCCN(c3c(/C=C(\F)c4cncc(N5CC(F)(F)C5)n4)ccc(Oc4ccccc4F)c3C(F)(F)F)C2)CC1 [Example 44, (Z)-2-(6-(2-(6-(3,3-Difluoroazetidin-1-yl)pyrazin-2-yl)-2-fluorovinyl)-3-(2-fluorophenoxy)-2-(trifluoromethyl)phenyl)-9-ethyl-2,9-diazaspiro[5.5]undecane]
9 | ≥ 7.70 | ≥ 7.70 | OCCN1CCC2(CCCN(c3c(/C=C(\F)c4nccc(-c5cnsc5)n4)ccc(Oc4ccccc4F)c3C(F)(F)F)C2)CC1 [Example 45, (Z)-2-(2-(6-(2-Fluoro-2-(4-(isothiazol-4-yl)pyrimidin-2-yl)vinyl)-3-(2-fluorophenoxy)-2-(trifluoromethyl)phenyl)-2,9-diazaspiro[5.5]undecan-9-yl)ethan-1-ol]
